Laboratory results as given in ChEMBL document CHEMBL1151580, “Synthesis and antibacterial activity of some C-3-lactonyl substituted cephalosporins” (1993).

Assays:
[1] = system: Escherichia coli; experiment: Minimum inhibitory concentration required for antibacterial activity against Escherichia coli 1077; assay type: functional
[2] = system: Escherichia coli; experiment: Minimum inhibitory concentration required for antibacterial activity against Escherichia coli ESS; assay type: functional
[3] = system: Escherichia coli; experiment: Minimum inhibitory concentration required for antibacterial activity against Escherichia coli JT425; assay type: functional
[4] = system: Escherichia coli; experiment: Minimum inhibitory concentration required for antibacterial activity against Escherichia coli 10418; assay type: functional
[5] = system: Enterococcus faecalis; experiment: Minimum inhibitory concentration required for antibacterial activity against Ent. faecalis I; assay type: functional
[6] = system: Haemophilus influenzae; experiment: Minimum inhibitory concentration required for antibacterial activity against Haemophilus influenzae NEMC1; assay type: functional
[7] = system: Haemophilus influenzae; experiment: Minimum inhibitory concentration required for antibacterial activity against Haemophilus influenzae Q1; assay type: functional
[8] = system: Klebsiella pneumoniae; experiment: Minimum inhibitory concentration required for antibacterial activity against Klebsiella pneumoniae T767; assay type: functional
[9] = system: Moraxella catarrhalis; experiment: Minimum inhibitory concentration required for antibacterial activity against Moraxella catarrhalis Ravasio; assay type: functional
[10] = system: Morganella morganii; experiment: Minimum inhibitory concentration required for antibacterial activity against Morg. morganii T361; assay type: functional
[11] = system: Pseudomonas aeruginosa; experiment: Minimum inhibitory concentration required for antibacterial activity against Pseudomonas aeruginosa 10662; assay type: functional
[12] = system: Proteus mirabilis; experiment: Minimum inhibitory concentration required for antibacterial activity against Pr. mirabilis C977; assay type: functional
[13] = system: Staphylococcus aureus; experiment: Minimum inhibitory concentration required for antibacterial activity against Staphylococcus aureus MB9; assay type: functional
[14] = system: Staphylococcus epidermidis; experiment: Minimum inhibitory concentration required for antibacterial activity against Staphylococcus epidermidis PHLN 20; assay type: functional
[15] = system: Streptococcus pyogenes; experiment: Minimum inhibitory concentration required for antibacterial activity against Streptococcus pyogenes CN 10; assay type: functional
[16] = system: Streptococcus agalactiae; experiment: Minimum inhibitory concentration required for antibacterial activity against Streptococcus agalactiae 2798; assay type: functional
[17] = system: Streptococcus pneumoniae; experiment: Minimum inhibitory concentration required for antibacterial activity against Streptococcus pneumoniae 1761; assay type: functional
[18] = system: Streptococcus pneumoniae; experiment: Minimum inhibitory concentration required for antibacterial activity against Streptococcus pneumoniae PU 7; assay type: functional
[19] = system: Staphylococcus aureus; experiment: Minimum inhibitory concentration required for antibacterial activity against Staphylococcus aureus Oxford
[20] = system: Staphylococcus aureus; experiment: Minimum inhibitory concentration required for antibacterial activity against Staphylococcus aureus Russell
[21] = system: Staphylococcus aureus; experiment: Minimum inhibitory concentration required for antibacterial activity against Staphylococcus aureus Oxford; assay type: functional
[22] = system: Staphylococcus aureus; experiment: Minimum inhibitory concentration required for antibacterial activity against Staphylococcus aureus Russell; assay type: functional

| MIC [1] | MIC [2] | MIC [3] | MIC [4] | MIC [5] | MIC [6] | MIC [7] | MIC [8] | MIC [9] | MIC [10] | MIC [11] | MIC [12] | MIC [13] | MIC [14] | MIC [15] | MIC [16] | MIC [17] | MIC [18] | MIC [21] | MIC [22] | Compound | other results |
| --- | --- | --- | --- | --- | --- | --- | --- | --- | --- | --- | --- | --- | --- | --- | --- | --- | --- | --- | --- | --- | --- |
| 1 µg/mL | < 0.03 µg/mL | 2 µg/mL | < 0.03 µg/mL | 16 µg/mL | < 0.03 µg/mL | < 0.03 µg/mL | 1 µg/mL | 8 µg/mL | < 0.06 µg/mL | 32 µg/mL | 0.06 µg/mL | 4 µg/mL | 2 µg/mL | < 0.03 µg/mL | < 0.03 µg/mL | < 0.03 µg/mL | 0.5 µg/mL | – | – | CO/N=C(\C(=O)N[C@@H]1C(=O)N2C(C(=O)[O-])=C(/C=C3\C=C(C)C(=O)O3)CS[C@H]12)c1csc(N)n1.[Na+] | MIC [19]: 1 µg/mL; MIC [20]: 2 µg/mL |
| 0.5 µg/mL | < 0.03 µg/mL | 4 µg/mL | 0.06 µg/mL | > 64 µg/mL | < 0.03 µg/mL | 0.06 µg/mL | 0.5 µg/mL | 0.5 µg/mL | 0.5 µg/mL | > 64 µg/mL | 0.25 µg/mL | 4 µg/mL | 4 µg/mL | < 0.03 µg/mL | 0.06 µg/mL | < 0.03 µg/mL | 4 µg/mL | 1 µg/mL | 1 µg/mL | CO/N=C(\C(=O)N[C@@H]1C(=O)N2C(C(=O)[O-])=C(CC3C=CC(=O)O3)CS[C@H]12)c1csc(N)n1.[Na+] (stereo not given in full) | – |
| 0.12 µg/mL | < 0.03 µg/mL | 1 µg/mL | < 0.03 µg/mL | > 64 µg/mL | < 0.03 µg/mL | 0.06 µg/mL | 0.06 µg/mL | 2 µg/mL | 0.06 µg/mL | 64 µg/mL | < 0.03 µg/mL | 2 µg/mL | 0.5 µg/mL | < 0.03 µg/mL | 0.06 µg/mL | < 0.03 µg/mL | 2 µg/mL | 1 µg/mL | 1 µg/mL | CO/N=C(\C(=O)N[C@@H]1C(=O)N2C(C(=O)[O-])=C(C3CCC(=O)O3)CS[C@H]12)c1csc(N)n1.[Na+] (stereo not given in full) | – |

| Compound | MIC [1] | MIC [2] | MIC [3] | MIC [4] | MIC [5] | MIC [6] | MIC [7] | MIC [8] | MIC [9] | MIC [10] | MIC [11] | MIC [12] | MIC [13] | MIC [14] | MIC [15] | MIC [16] | MIC [17] | MIC [18] | MIC [21] | MIC [22] | other results |
| --- | --- | --- | --- | --- | --- | --- | --- | --- | --- | --- | --- | --- | --- | --- | --- | --- | --- | --- | --- | --- | --- |
| CO/N=C(\C(=O)N[C@@H]1C(=O)N2C(C(=O)[O-])=C(COC(C)=O)CS[C@H]12)c1csc(N)n1.[Na+] [CEFOTAXIME SODIUM] | < 0.03 µg/mL | < 0.03 µg/mL | 0.5 µg/mL | < 0.03 µg/mL | > 64 µg/mL | < 0.03 µg/mL | < 0.03 µg/mL | 0.06 µg/mL | 0.25 µg/mL | 2 µg/mL | 16 µg/mL | < 0.03 µg/mL | 4 µg/mL | 1 µg/mL | < 0.03 µg/mL | 0.12 µg/mL | < 0.03 µg/mL | 2 µg/mL | 2 µg/mL | 2 µg/mL | – |
